Reference: patent publication US7138140B2, “Suplatast tosilate crystals” (Taiho Pharmaceutical Co., Ltd., priority 2001, dated 2006)

Legend:
Assay type in all cases: physicochemical
[1] = Hygroscopicity Test 2 (storage at 40° C., relative humidity 50%, 14 days); conditions: for Change in appearance on storage: p-toluenesulfonate
Experimental: [Test 3] Hygroscopicity Test 2
Each of the suplatast tosilate crystals of the invention obtained in Example 1, and the second crystals obtained in accordance with the process of Comparative Example 4 (each, 0.5 g) were stored at 40° C. and relative humidity of 50% for 14 days, followed by observation of their appearance, powder X-ray diffraction and differential scanning calorimetry (DSC) in order to investigate storage stability.

[2] = Hygroscopicity Test 1 (storage at 25° C., 75% RH, time-dependent weight change); conditions: relative humidity 75%, FIG. 4
Experimental: FIG. 4 is a graph illustrating a water content increase, at 25° C. and relative humidity of 75%, of the invention crystal of suplatast tosilate (Example 1) suplatast tosilate first crystal (commercially available product) and suplatast tosilate second crystal (Comparative Example 4).
[Test 2] Hygroscopicity Test 1
In a dessicator (adjusted to 75% RH) having a saturated aqueous solution of sodium chloride charged therein, 1.0 g of each of the suplatast tosilate crystals of the invention obtained in Example 1, commercially available suplatast tosilate first crystals and the suplatast tosilate second crystals obtained in Comparative Example 4 were stored at 25° C. and a time-dependent weight change was measured.

[3] = Heat Stability Test (60° C., 3 months, glass air-tight container); conditions: for Decomposition product (wt. %) formed, Lot 1: Lot 1, p-toluenesulfonate
Experimental: [Test 4] Heat Stability Test
The invention crystals of suplatast tosilate obtained in accordance with the process of Example 1 and commercially available suplatast tosilate first crystals, each 3.6 g, were stored at 60° C. for 3 months in a glass air-tight container and the formation amount and powder X-ray diffraction of a decomposition product ((±)-4-(3-ethoxy-2-hydroxypropoxy) aniline derivative) were measured to investigate heat storage stability.

[4] = Measurement of an optically active substance ratio (chiral stationary phase column); conditions: p-toluenesulfonate; for Optically active substance ratio ((+)/(−)): crystals, Chiralcel OD-H column; for Optically active substance ratio of the suplatast tosilate in the mother liquor: mother liquor after crystallization
Experimental: [Test 1] Measurement of an Optically Active Substance Ratio
The optically active substance ratio of each of the suplatast tosilate crystals of the present invention obtained in Examples 1 to 3, and the suplatast tosilate first crystals obtained in Comparative Examples 1 to 3 was measured using a chiral stationary phase column (“Chiralcel OD-H”, 4.6 mm×25 cm, product of Daicel Chemical Industries) with n-hexane ethanol-trifluoroacetic acid-diethylamine (750:250:5:1) as a mobile phase.
The optically active substance ratio of the suplatast tosilate in the mother liquor in each of Examples and Comparative Examples was measured as described above. The ratio in Example 1 to 6 was from 0.99 to 1.01, while it was 0.57 in Comparative Example 1, 0.87 in Comparative Example 2, and 0.42 in Comparative Example 3. Accordingly, the invention crystal can be recovered again from the mother liquor, while the first crystal cannot be recovered from the mother liquor. Such a phenomenon owes to optical enrichment phenomenon typically observed upon formation of the first crystal.

[5] = 2 months, Lot 2, p-toluenesulfonate
[6] = 2 months, Lot 3, p-toluenesulfonate
[7] = 3 months, Lot 2, p-toluenesulfonate
[8] = 3 months, Lot 3, p-toluenesulfonate

CCOCC(O)COc1ccc(NC(=O)CC[S+](C)C)cc1.Cc1ccc(S(=O)(=O)[O-])cc1 (racemic) [second crystal, (±)-[2-[4-(3-ethoxy-2-hydroxypropoxy)phenylcarbamoyl]ethyl] dimethylsulfonium p-toluenesulfonate]
Change in appearance on storage [1]: showed deliquescence after storage for one week

CCOCC(O)COc1ccc(NC(=O)CC[S+](C)C)cc1.Cc1ccc(S(=O)(=O)[O-])cc1 (racemic) [Invention crystal, (±)-[2-[4-(3-ethoxy-2-hydroxypropoxy)phenylcarbamoyl]ethyl] dimethylsulfonium p-toluenesulfonate]
Hygroscopicity (water content increase) [2]: lower hygroscopicity than each of the first crystal and second crystal | Decomposition product (wt. %) formed, Lot 1 ([3]; 1 month): 0.0 wt. % | Decomposition product (wt. %) formed, Lot 2 ([3]; 1 month, Lot 2): 0.0 wt. % | Decomposition product (wt. %) formed, Lot 3 ([3]; 1 month, Lot 3): 0.0 wt. % | Decomposition product (wt. %) formed, Lot 1 ([3]; 2 months): 0.0 wt. % | Decomposition product (wt. %) formed, Lot 2 [3, 5]: 0.0 wt. % | Decomposition product (wt. %) formed, Lot 3 [3, 6]: 0.0 wt. % | Decomposition product after 3 months (in words) ([3]; 3 months): no decomposition product appeared | Decomposition product (wt. %) formed, Lot 1 ([3]; 3 months): 0.0 wt. % | Decomposition product (wt. %) formed, Lot 2 [3, 7]: 0.0 wt. % | Decomposition product (wt. %) formed, Lot 3 [3, 8]: 0.0 wt. % | Change in powder X-ray diffraction peaks and DSC on storage [1]: almost free from a change in powder X-ray diffraction peaks and in DSC | Change in appearance on storage [1]: almost free from a change in appearance

CCOCC(O)COc1ccc(NC(=O)CC[S+](C)C)cc1.Cc1ccc(S(=O)(=O)[O-])cc1 (racemic) [Example 2, (±)-[2-[4-(3-ethoxy-2-hydroxypropoxy)phenylcarbamoyl]ethyl] dimethylsulfonium p-toluenesulfonate]
Optically active substance ratio ((+)/(−)) [4]: 1.00

CCOCC(O)COc1ccc(NC(=O)CC[S+](C)C)cc1.Cc1ccc(S(=O)(=O)[O-])cc1 (racemic) [Example 1, (±)-[2-[4-(3-ethoxy-2-hydroxypropoxy)phenylcarbamoyl]ethyl] dimethylsulfonium p-toluenesulfonate]
Optically active substance ratio ((+)/(−)) [4]: 1.00

CCOCC(O)COc1ccc(NC(=O)CC[S+](C)C)cc1.Cc1ccc(S(=O)(=O)[O-])cc1 (racemic) [First crystal, (±)-[2-[4-(3-ethoxy-2-hydroxypropoxy)phenylcarbamoyl]ethyl] dimethylsulfonium p-toluenesulfonate]
Decomposition product (wt. %) formed, Lot 1 ([3]; 1 month): 0.1 wt. % | Decomposition product (wt. %) formed, Lot 2 ([3]; 1 month, Lot 2): 0.0 wt. % | Decomposition product (wt. %) formed, Lot 3 ([3]; 1 month, Lot 3): 0.0 wt. % | Decomposition product (wt. %) formed, Lot 1 ([3]; 2 months): 1.1 wt. % | Decomposition product (wt. %) formed, Lot 2 [3, 5]: 0.7 wt. % | Decomposition product (wt. %) formed, Lot 3 [3, 6]: 0.5 wt. % | Decomposition product formed after 3-month storage (over the lots) ([3]; 3 months): about 1.7 wt. % | Decomposition product (wt. %) formed, Lot 1 ([3]; 3 months): 2.1 wt. % | Decomposition product (wt. %) formed, Lot 2 [3, 7]: 1.5 wt. % | Decomposition product (wt. %) formed, Lot 3 [3, 8]: 1.4 wt. %

CCOCC(O)COc1ccc(NC(=O)CC[S+](C)C)cc1.Cc1ccc(S(=O)(=O)[O-])cc1 (racemic) [Comparative Example 3, (±)-[2-[4-(3-ethoxy-2-hydroxypropoxy)phenylcarbamoyl]ethyl] dimethylsulfonium p-toluenesulfonate]
Optically active substance ratio ((+)/(−)) [4]: 0.94 | Optically active substance ratio of the suplatast tosilate in the mother liquor [4]: 0.42

CCOCC(O)COc1ccc(NC(=O)CC[S+](C)C)cc1.Cc1ccc(S(=O)(=O)[O-])cc1 (racemic) [Example 3, (±)-[2-[4-(3-ethoxy-2-hydroxypropoxy)phenylcarbamoyl]ethyl] dimethylsulfonium p-toluenesulfonate]
Optically active substance ratio ((+)/(−)) [4]: 1.00

CCOCC(O)COc1ccc(NC(=O)CC[S+](C)C)cc1.Cc1ccc(S(=O)(=O)[O-])cc1 (racemic) [Example 6, (±)-[2-[4-(3-ethoxy-2-hydroxypropoxy)phenylcarbamoyl]ethyl] dimethylsulfonium p-toluenesulfonate]
Optically active substance ratio ((+)/(−)) [4]: around 1.00

CCOCC(O)COc1ccc(NC(=O)CC[S+](C)C)cc1.Cc1ccc(S(=O)(=O)[O-])cc1 (racemic) [Comparative Example 1, (±)-[2-[4-(3-ethoxy-2-hydroxypropoxy)phenylcarbamoyl]ethyl] dimethylsulfonium p-toluenesulfonate]
Optically active substance ratio ((+)/(−)) [4]: 1.09 | Optically active substance ratio of the suplatast tosilate in the mother liquor [4]: 0.57

CCOCC(O)COc1ccc(NC(=O)CC[S+](C)C)cc1.Cc1ccc(S(=O)(=O)[O-])cc1 (racemic) [Comparative Example 2, (±)-[2-[4-(3-ethoxy-2-hydroxypropoxy)phenylcarbamoyl]ethyl] dimethylsulfonium p-toluenesulfonate]
Optically active substance ratio ((+)/(−)) [4]: 0.97 | Optically active substance ratio of the suplatast tosilate in the mother liquor [4]: 0.87
